Experiments:
[1] = anxiolytic effect, Vogel lick-conflict test; format: in vivo
Protocol: The anxiolytic effect was determined by the method of Vogel lick-conflict test/[Psychopharmacol. 21, 1 1979]. Tofizopam, 1-(3-chlorophenyl)-4-methyl-7,8-dimethoxy-5H-2,3-benzodiazepine and Chlorodiazepoxide 7-chloro-2-methylamino-5-phenyl-3H-1,4-benzodiazepine-4-oxide were used as reference agents.

mice [2] = assay: antiaggressive effect, "fighting behaviour" test; format: in vivo; conditions: for ED50: Mus musculus, po; for Relative activity: antiaggressive effect, p.o., tofizopam = 1.0
Excerpt: The antiaggressive effect was studied on mice by the so-called "fighting behaviour" test [J. Pharm. Exp. Ther. 125, 28 (1959)]. Tofizopam and 1-(3-chlorophenyl)-4-methyl-7,8-dimethoxy-5H-2,3-benzodiazepine were used as reference agents.

mice [3] = assay: narcosis potentiating effect (sodium hexobarbital narcosis); format: in vivo; conditions: Mus musculus, po, 50 mg/kg sodium hexobarbital i.v., limits between slashes, read-out: ED50 (dose increasing the narcosis period of half of the test animals to double)
Protocol: The narcosis potentiating effect was studied on mice. The compounds were administered in 3 or 4 oral doses to 15-20 animals per dose. Narcosis was induced with 50 mg/kg of sodium hexobarbital injected intravenously into the animals. The ED50 value is the dose increasing the narcosis period of half of the test animals to double.

[4] = system: mice from the CFLP strain; assay: spontaneous motor activity, motimeter of Animex type; format: in vivo; conditions: Mus musculus, po, 2 hours registration, Litchfield and Wilcoxon, limits between slashes, read-out: ED50 value (dose decreasing the spontaneous motor activity to half)
Protocol: The spontaneous motor activity was measured on a motimeter of Animex type. Groups of animal consisting of 3 mice from the CFLP strain weighing 20 to 23 g were starved for 24 hours and put to the apparatus. After a previous treatment of 10 minutes the amount of movements was registered continuously for 2 hours. The dose decreasing the spontaneous motor activity to half in comparison with the control group treated with vehiculum was determined.
The ED50 values were calculated by the method of Litchfield and Wilcoxon [J. Pharmacol. Exp. Ther. 96, 99 1949].

[5] = muscle relaxant activity, rotarod test; format: in vivo; conditions: ip, read-out: ED50, rotarod test
rats = assay: hypnotic activity in rats (HD50); format: in vivo; conditions: Rattus norvegicus, iv
mice [6] = assay: hypnotic activity in mice (HD50); format: in vivo; conditions: for ED50: Mus musculus, mice
[7] = muscle relaxant activity, "inclined screen" test; format: in vivo
[8] = tofizopam used in the therapy; cited from earlier work

SMILES | ED50 (mice [2]) [mg/kg] | Relative activity (mice [2]) | ED50 (mice [3]) [mg/kg] | ED50 [4] [mg/kg] | other results
COc1cc2c(cc1OC)C(c1cccc(Cl)c1)=NN=C(C)C2 [1-(3-chlorophenyl)-4-methyl-7,8-dimethoxy-5H-2,3-benzodiazepine, reference compound] | 16 | 4.6 | 16 | 6.2 | Number of electric shocks tolerated ([1]; 25 mg/kg i.p.): 9.9 ± 2.8; Number of electric shocks tolerated ([1]; 50 mg/kg i.p.): 19.0 ± 2.3
CNC1=Nc2ccc(Cl)cc2C(c2ccccc2)=[N+]([O-])C1 [Chlorodiazepoxide, 7-chloro-2-methylamino-5-phenyl-3H-1,4-benzodiazepine-4-oxide, reference compound] |  |  |  |  | Number of electric shocks tolerated ([1]; 5 mg/kg i.p.): 9.7 ± 3.7; Number of electric shocks tolerated ([1]; 10 mg/kg i.p.): 27.5 ± 2.5
COc1cc2c(cc1OC)C(c1ccc(N)cc1)=NN=C(C)C2 [Example 1, 1-(4-aminophenyl)-4-methyl-7,8-dimethoxy-5H-2,3-benzodiazepine] | 8.1 | 7.9 | 4.8 | 3.2 | Number of electric shocks tolerated ([1]; 2.5 mg/kg i.p.): 4.1 ± 0.7; Number of electric shocks tolerated ([1]; 5 mg/kg i.p.): 13.9 ± 2.7; Number of electric shocks tolerated ([1]; 10 mg/kg i.p.): 19.7 ± 2.9
COc1cc2c(cc1OC)C(c1cccc(N)c1)=NN=C(C)C2 [Example 2, 1-(3-Aminophenyl)-4-methyl-7,8-dimethoxy-5H-2,3-benzodiazepine] | 12.5 | 5.1 | 8.2 | 1.3 | Number of electric shocks tolerated ([1]; 10 mg/kg i.p.): 4.2 ± 0.7; Number of electric shocks tolerated ([1]; 25 mg/kg i.p.): 15.1 ± 1.9
CC1=NN=C(c2ccc(N)cc2)c2cc3c(cc2C1)OCO3 [Example 8, 1-(4-aminophenyl)-4-methyl-7,8-methylenedioxy-5H-2,3-benzodiazepine] |  |  | 7.4 | 48 | ED50 [5]: 24 mg/kg; ED50 (rats): 40 mg/kg; ED50 (mice [6]; ip): 70 mg/kg; ED50 (mice [6]; iv): 40 mg/kg; ED50 (mice [6]; po): 140 mg/kg; hypnotic activity (in words) (mice [6]; mice and rats): significant hypnotic activity; ED50 ([7]; ip, read-out: ED50, inclined screen test): 47 mg/kg; muscle relaxant activity (in words) ([7]; versus Zoxazolamine, inclined screen and rotarod): more potent than the reference substance Zoxazolamine
COc1cc2c(cc1OC)C(c1ccc(N)c(C)c1)=NN=C(C)C2 [Example 10, 1-(3-Methyl-4-aminophenyl)-4-methyl-7,8-dimethoxy-5H-2,3-benzodiazepine] | 9.1 | 7.0 | 7.4 | 4.4 | 
COc1cc2c(cc1OC)C(C)C(C)=NN=C2c1ccc(N)cc1 (stereo not drawn) [Example 11, 1-(4-Aminophenyl)-4,5-dimethyl-7,8-dimethoxy-5H-2,3-benzodiazepine] | 16 | 4.6 |  |  | 
COc1cc2c(cc1OC)C(c1ccc(C)c(N)c1)=NN=C(C)C2 [Example 15, 1-(3-Amino-4-methylphenyl)-4-methyl-7,8-dimethoxy-5H-2,3-benzodiazepine] | 17 | 3.8 | 25 | 9.7 | 
COc1cc2c(cc1OC)C(c1ccc(N)c(Cl)c1)=NN=C(C)C2 [Example 18, 1-(3-Chloro-4-aminophenyl)-4-methyl-7,8-dimethoxy-5H-2,3-benzodiazepine] | 7.9 | 8.1 | 7.6 |  | Number of electric shocks tolerated ([1]; 2.5 mg/kg i.p.): 7.6 ± 3.0; Number of electric shocks tolerated ([1]; 5 mg/kg i.p.): 8.3 ± 1.0
O=C1CN=C(c2ccccc2)c2cc([N+](=O)[O-])ccc2N1 [Nitrazepam, 7-nitro-5-phenyl-1,3-dihydro-2H-1,4-benzodiazepin-2-one, reference compound] |  |  |  |  | ED50 (rats): 96 mg/kg; ED50 (mice [6]; ip): 150 mg/kg; ED50 (mice [6]; iv): 75 mg/kg; ED50 (mice [6]; po): 185 mg/kg
CCC1C(C)=NN=C(c2ccc(OC)c(OC)c2)c2cc(OC)c(OC)cc21 (stereo not drawn) [Tofizopam, 1-(3,4-dimethoxyphenyl)-4-methyl-5-ethyl-7,8-dimethoxy-5H-2,3-benzodiazepine, reference compound] | 74 | 1.0 | 38 | 22 | Number of electric shocks tolerated ([1]; 25 mg/kg i.p.): 3.6 ± 0.4; Number of electric shocks tolerated ([1]; 50 mg/kg i.p.): 19.8 ± 3.7; further central nervous character (in words), reference drug [8]: in addition to the anxiolytic effect, a weak antidepressant activity

Reference: patent US4614740A, “5H-2,3-benzodiazepine derivatives and pharmaceutical compositions containing the same” (Egis Gyogyszergyar, priority 1984, dated 1986)
